Laboratory results: patent publication US20090042878A1, “THIENOPYRIMIDYLAMINES AS MODULATORS OF THE EP2 RECEPTOR” (priority 2007, published 2009)

Columns and labels:
[1] = target: T1, human prostaglandin E2 (subtype EP2) receptor (Homo sapiens, UniProt P43116); test: cAMP antagonism test (HTRF cAMP detection, PGE2 stimulation); assay type: cell-based; conditions: in presence of PGE2
T1 construct: host or cells: cells in a cell culture plate
Protocol: (§1) The binding of PGE2 to the EP2 subtype of the human PGE2 receptor induces activation of membrane-associated adenylate cyclases and leads to the formation of cAMP. In the presence of the phosphodiesterase inhibitor IBMX, cAMP which has accumulated due to this stimulation and been released by cell lysis is employed in a competitive detection method. In this assay, the cAMP in the lysate competes with cAMP-XL665 for binding of an Eu cryptate-labelled anti-cAMP antibody.
(§2) The two signals are measured in a suitable measuring instrument with a time lag, i.e. after the background fluorescence has declined.
(§3) The substance solutions (0.75 μl) introduced into an assay plate and 30% DMSO are dissolved in 16 μl of a KRSB+IBMX stimulation solution (1× Krebs-Ringer Bicarbonate Buffer; Sigma-Aldrich #K-4002; including 750 μM 3-isobutyl-1-methylxanthine Sigma-Aldrich #I-7018), and then 15 μl thereof are transferred into a media-free cell culture plate which has been washed with KRSB shortly beforehand.
After preincubation at room temperature (RT) for 30 minutes, 5 μl of a 4×PGE2 solution (11 nM) are added, and incubation is carried out in the presence of the agonist at RT for a further 60 min (volume: ˜20 μl) before the reaction is then stopped by adding 5 μl of lysis buffer and incubated at RT for a further 20 min (volume: ˜25 μl). The cell lysate is then transferred into a measuring plate and measured in accordance with the manufacturer's information (cyclic AMP kit Cisbio International #62AMPPEC).

[2] = target: T1, human prostaglandin E2 (subtype EP2) receptor; test: cellular agonism test (cAMP); assay type: cell-based
Protocol: as §1, §2, §3
After incubation at room temperature (RT; volume: ˜15 μl) for 60 minutes, the reaction is then stopped by adding 5 μl of lysis buffer and incubated at RT for a further 20 min (volume: ˜20 μl). The cell lysate is then transferred into a measuring plate and measured in accordance with the manufacturer's instructions (cyclic AMP kit Cisbio International #62AMPPEC).

cumulus-oocyte complexes = test: cumulus expansion assay in vitro; assay type: cell-based, mice; conditions: competing with natural EP2 receptor agonist PGE2
Protocol: Folliculogenesis is induced in immature female mice at an age of 14-18 days by a single dose (intraperitoneal) of 10 I.U. of PMSG (Pregnant Mare Serum Gonadotropin; Sigma G-4877, Lot 68H0909). 47-50 hours after the injection, the ovaries are removed and the cumulus-oocyte complexes are removed. The cumulus complex is not yet expanded at this stage.
The cumulus-oocyte complexes are then incubated with prostaglandin E2 (PGE2) (1 μM), vehicle control (ethanol) or test substances for 20-24 hours. Medium: alpha-MEM medium with 0.1 mM IBMX, pyruvates (0.23 mM) glutamines (2 mM), pen/strep 100 IU/ml pen. and 100 μg/ml strep. and HSA (8 mg/ml). Cumulus expansion is then established through the division into four stages (according to Vanderhyden et al. Dev Biol. 1990 August; 140(2):307-317).

T1 sequence (P43116 whole entry): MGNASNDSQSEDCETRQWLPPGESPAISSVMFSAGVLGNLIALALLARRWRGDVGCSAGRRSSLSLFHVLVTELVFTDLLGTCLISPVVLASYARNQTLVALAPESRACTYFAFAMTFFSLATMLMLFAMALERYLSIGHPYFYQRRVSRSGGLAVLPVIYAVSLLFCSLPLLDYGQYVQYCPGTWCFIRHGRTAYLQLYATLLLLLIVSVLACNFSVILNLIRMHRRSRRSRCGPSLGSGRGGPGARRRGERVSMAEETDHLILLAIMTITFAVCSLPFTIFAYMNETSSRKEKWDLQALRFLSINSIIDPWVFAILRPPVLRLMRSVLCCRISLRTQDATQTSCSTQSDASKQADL

SMILES	IC50 [1] [µM]	other results
CC(=O)Nc1cccc(-c2cc3ncnc(NCc4ccc5c(c4)OCO5)c3s2)c1 [Example 69, N-(3-{4-[(Benzo[1,3]dioxol-5-ylmethyl)amino]thieno[3,2-d]pyrimidin-6-yl}phenyl)acetamide]	0.46	effect in the cellular agonism test [2]: no inhibition
c1cnc2ccc(-c3cc4ncnc(NCc5ccc6c(c5)OCO6)c4s3)cc2c1 [Example 57, Benzo[1,3]dioxol-5-ylmethyl-(6-quinolin-6-yl-thieno[3,2-d]pyrimidin-4-yl)amine]	0.61	–
CC(C)Oc1ccc2c(=O)c3cc(C(=O)O)ccc3oc2c1 [AH 6809, reference compound]	–	suppression of cumulus expansion (cumulus-oocyte complexes): approx. 30%
Oc1ccc(CCNc2ncnc3cc(-c4ccccc4)sc23)cc1 [Example 9, 4-[2-(6-Phenylthieno[3,2-d]pyrimidin-4-ylamino)ethyl]phenol]	–	suppression of cumulus expansion (cumulus-oocyte complexes; 10 μM): 45%
COc1ccc(CNc2ncnc3cc(-c4cccc(NC(C)=O)c4)sc23)cc1 [Example 90, N-{3-[4-(4-Methoxybenzylamino)thieno[3,2-d]pyrimidin-6-yl]phenyl}acetamide]	0.31	–
